Measured values: US20210115104A1, “AMYLIN ANALOGUES” (Zealand Pharma A/S, priority 2015, published 2021)
*1 amine or outer side, *2 acyl side, *3 side chain or, on linkers, in order; H or OH if unused. Where a SMILES comes first, the peptide text is derived from it. Bridges are numbered along the chain shown (N, C = ends). [ ]: non-standard residue; d: D form. The star is where a group is joined. C20 diacid = O=C(O)CCCCCCCCCCCCCCCCCCC(=O)*; γGlu = O=C(O)[C@H](CCC(=O)[*:2])N[*:1]; Hyp = O=C(O)[C@@H]1C[C@@H](O)CN1; NMeI = CC[C@H](C)[C@H](NC)C(=O)O; Sar = CNCC(=O)O

Tests used:
[1] = Assessment of chemical stability (RP-HPLC normalized purity); format: physicochemical; conditions: 7 days, 40° C., Table 1; for Normalized purity after 7 days, 40° C., pH 4: pH 4, 0.2 mg/ml; for Normalized purity after 7 days, 40° C., pH 6: pH 6, 0.2 mg/ml; for Normalized purity after 7 days, 40° C., pH 7.5: pH 7.5, 0.2 mg/ml; for Normalized purity after 7 days, 40° C., pH 9: pH 9, 0.2 mg/ml
Outline: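 Purity after 7 days at 40° C is expressed relative to T=0 (set to 100) for each pH. Samples at 0.2 mg/ml, pH 4, 6, 7.5 or 9, analyzed by RP-HPLC with UV 220 nm on C8 (ammonium formate) or C18 (TFA) gradients.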

[2] = target: T1, human calcitonin receptor (hCTR2) (Homo sapiens, UniProt P30988); test: hCTR2 cAMP assay (AlphaScreen) in COS7 cells; format: cell-based; conditions: cAMP induction, COS7 cells expressing hCTR2; Table 1; read-out: hCTR2 EC50
T1 construct: expressed in transfected cells
T1 sequence (P30988 25-474): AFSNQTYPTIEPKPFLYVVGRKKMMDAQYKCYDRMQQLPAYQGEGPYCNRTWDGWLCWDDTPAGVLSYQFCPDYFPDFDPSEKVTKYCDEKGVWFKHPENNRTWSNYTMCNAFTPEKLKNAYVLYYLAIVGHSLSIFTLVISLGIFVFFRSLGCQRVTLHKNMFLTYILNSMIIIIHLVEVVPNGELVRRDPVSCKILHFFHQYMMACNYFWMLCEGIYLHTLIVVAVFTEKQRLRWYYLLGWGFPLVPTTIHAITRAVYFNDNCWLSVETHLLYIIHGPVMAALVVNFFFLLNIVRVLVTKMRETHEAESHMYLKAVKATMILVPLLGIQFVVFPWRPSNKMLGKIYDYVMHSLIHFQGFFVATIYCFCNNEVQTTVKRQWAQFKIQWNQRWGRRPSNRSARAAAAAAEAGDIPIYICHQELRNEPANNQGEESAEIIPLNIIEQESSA
Outline: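 cAMP induction, read by AlphaScreen after lysis, gives EC50 values via 4PL curve fitting. Peptides were applied at rising concentrations for 15 min at 37 °C, with IBMX and 0.1% casein in HEPES-buffered Tyrode pH 7.4, to COS7 cells (no endogenous RAMPs) stably expressing human CTR2.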

[3] = Assessment of physical stability (Thioflavin T fibrillation); format: physicochemical; set-up: key: FND = fibrillation not detected; FD = fibrillation detected; conditions: 1 mg/ml, 40° C., ThT; for Fibrillation pH 4.0 (Ac): 50 mM acetate buffer pH 4.0, 96 hours; for Fibrillation pH 7.0 (His): 50 mM histidine buffer pH 7.0, 96 hours; for Fibrillation pH 7.0 (Phos.): 50 mM phosphate buffer pH 7.0, 96 hours
Outline: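 Fibrillation lag-time, in hours, taken where regressions of the initial stable phase and the growth phase intersect. ThT (40 μM) fluorescence monitored at 40 °C for 96 h, 10-min reads each preceded by 300 s mixing. Peptide at 1 mg/ml in 50 mM buffers: phosphate or histidine pH 7.0, acetate pH 4.0.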

[4] = target: T2, human amylin receptor 3 (hAMYR3), hCTR2 co-expressed with hRAMP3 (Homo sapiens, UniProt O60896+P30988); test: hAMYR3 cAMP assay (AlphaScreen) in COS7 cells; format: cell-based; conditions: cAMP induction, COS7 cells expressing hAMYR3; Table 1; read-out: hAMYR3 EC50
T2 construct: expressed in transfected cells
T2 sequence (P30988 25-474): T1 sequence (P30988 25-474)
T2 sequence (O60896 24-148 partner): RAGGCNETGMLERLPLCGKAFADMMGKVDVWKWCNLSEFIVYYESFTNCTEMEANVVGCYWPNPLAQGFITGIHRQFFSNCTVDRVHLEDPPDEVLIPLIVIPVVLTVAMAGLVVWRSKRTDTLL
Outline: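 EC50 values derive from 4PL curve fits of cAMP (AlphaScreen) in lysates of RAMP-naive COS7 cells stably carrying hCTR2 plus hRAMP3. Peptide dilution series were applied for 15 min at 37 °C in pH 7.4 Tyrode buffer containing 100 µM IBMX and 0.1% casein.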

| Normalized purity after 7 days, 40° C., pH 4 [1] | Normalized purity after 7 days, 40° C., pH 6 [1] | Normalized purity after 7 days, 40° C., pH 7.5 [1] | Normalized purity after 7 days, 40° C., pH 9 [1] | EC50 [2] [nM] | Fibrillation pH 4.0 (Ac) [3] | Fibrillation pH 7.0 (His) [3] | Fibrillation pH 7.0 (Phos.) [3] | EC50 [4] [nM] | Structure (SMILES) |
| --- | --- | --- | --- | --- | --- | --- | --- | --- | --- |
| A (A = >90%) | A (A = >90%) | A (A = >90%) | B (B = 70-90%) | 0.06 | FND | FND | FND | 0.08 | CC[C@H](C)[C@@H](C(=O)N[C@@H](CC(C)C)C(=O)N[C@@H](CO)C(=O)N[C@@H](CO)C(=O)N[C@H](C(=O)N[C@@H](CCC(=O)O)C(=O)N[C@H](C(=O)NCC(=O)N[C@@H](CO)C(=O)N[C@@H](CC(N)=O)C(=O)N[C@H](C(=O)N1C[C@H](O)C[C@H]1C(N)=O)[C@@H](C)O)C(C)C)[C@@H](C)O)N(C)C(=O)[C@H](C)NC(=O)CN(C)C(=O)[C@H](Cc1ccccc1)NC(=O)[C@H](CO)NC(=O)[C@H](CO)NC(=O)[C@H](CCCNC(=N)N)NC(=O)[C@H](CCC(N)=O)NC(=O)[C@H](CC(C)C)NC(=O)[C@H](Cc1ccccc1)NC(=O)[C@H](Cc1c[nH]cn1)NC(=O)[C@H](C)NC(=O)[C@H](CC(C)C)NC(=O)[C@H](CCCNC(=N)N)NC(=O)[C@H](CCC(=O)O)NC(=O)[C@@H](NC(=O)[C@H](C)NC(=O)[C@@H]1CSSC[C@H](NC(=O)[C@H](CCCNC(=N)N)NC(=O)CC[C@H](NC(=O)CCCCCCCCCCCCCCCCCCC(=O)O)C(=O)O)C(=O)N[C@@H](CC(N)=O)C(=O)N[C@@H]([C@@H](C)O)C(=O)N[C@@H](C)C(=O)N[C@@H]([C@@H](C)O)C(=O)N1)[C@@H](C)O [Compound 56, [19CD]-isoGlu-R-C( )-NTAT-C( )-ATERLAHFLQRSSF-Gly(Me)-A-Ile(Me)-LSSTEVGSNT-Hyp-NH2] ({C20 diacid-γGlu}-RCNTATCATERLAHFLQRSSF[Sar]A[NMeI]LSSTEVGSNT[Hyp]-NH2; disulfide 2-7) |
| A (A = >90%) | B (B = 70-90%) | C (C = <70%) | B (B = 70-90%) | 0.03 | FND | FD | FD | 0.11 | CC[C@H](C)[C@@H](C(=O)N[C@@H](CC(C)C)C(=O)N[C@@H](CO)C(=O)N[C@@H](CO)C(=O)N[C@H](C(=O)N[C@@H](CC(=O)O)C(=O)N[C@H](C(=O)NCC(=O)N[C@@H](CO)C(=O)N[C@@H](CC(N)=O)C(=O)N[C@H](C(=O)N1C[C@H](O)C[C@H]1C(N)=O)[C@@H](C)O)C(C)C)[C@@H](C)O)N(C)C(=O)[C@H](C)NC(=O)CN(C)C(=O)[C@H](Cc1ccccc1)NC(=O)[C@H](CO)NC(=O)[C@H](CO)NC(=O)[C@H](CCCNC(=N)N)NC(=O)[C@H](CCC(N)=O)NC(=O)[C@H](CC(C)C)NC(=O)[C@H](Cc1ccccc1)NC(=O)[C@H](Cc1c[nH]cn1)NC(=O)[C@H](C)NC(=O)[C@H](CC(C)C)NC(=O)[C@H](CCCNC(=N)N)NC(=O)[C@H](CC(=O)O)NC(=O)[C@@H](NC(=O)[C@H](C)NC(=O)[C@@H]1CSSC[C@H](NC(=O)[C@H](CCCNC(=N)N)NC(=O)CC[C@H](NC(=O)CCCCCCCCCCCCCCCCCCC(=O)O)C(=O)O)C(=O)N2CCC[C@H]2C(=O)N[C@@H]([C@@H](C)O)C(=O)N[C@@H](C)C(=O)N[C@@H]([C@@H](C)O)C(=O)N1)[C@@H](C)O [Compound 59, [19CD]-isoGlu-R-C( )-PTAT-C( )-ATDRLAHFLQRSSF-Gly(Me)-A-Ile(Me)-LSSTDVGSNT-Hyp-NH2] ({C20 diacid-γGlu}-RCPTATCATDRLAHFLQRSSF[Sar]A[NMeI]LSSTDVGSNT[Hyp]-NH2; disulfide 2-7) |
| A (A = >90%) | A (A = >90%) | A (A = >90%) | B (B = 70-90%) | 0.08 | FND | FND | FND | 0.09 | CC[C@H](C)[C@@H](C(=O)N[C@@H](CC(C)C)C(=O)N[C@@H](CO)C(=O)N[C@@H](CO)C(=O)N[C@H](C(=O)N[C@@H](CCC(=O)O)C(=O)N[C@H](C(=O)NCC(=O)N[C@@H](CO)C(=O)N[C@@H](CC(=O)O)C(=O)N[C@H](C(=O)N1C[C@H](O)C[C@H]1C(N)=O)[C@@H](C)O)C(C)C)[C@@H](C)O)N(C)C(=O)[C@H](C)NC(=O)CN(C)C(=O)[C@H](Cc1ccccc1)NC(=O)[C@H](CO)NC(=O)[C@H](CO)NC(=O)[C@H](CCCNC(=N)N)NC(=O)[C@H](CCC(N)=O)NC(=O)[C@H](CC(C)C)NC(=O)[C@H](Cc1ccccc1)NC(=O)[C@H](Cc1c[nH]cn1)NC(=O)[C@H](C)NC(=O)[C@H](CC(C)C)NC(=O)[C@H](CCCNC(=N)N)NC(=O)[C@H](CCC(=O)O)NC(=O)[C@@H](NC(=O)[C@H](C)NC(=O)[C@@H]1CSSC[C@H](NC(=O)[C@H](CCCNC(=N)N)NC(=O)CC[C@H](NC(=O)CCCCCCCCCCCCCCCCCCC(=O)O)C(=O)O)C(=O)N[C@@H](CC(N)=O)C(=O)N[C@@H]([C@@H](C)O)C(=O)N[C@@H](C)C(=O)N[C@@H]([C@@H](C)O)C(=O)N1)[C@@H](C)O [Compound 60, [19CD]-isoGlu-R-C( )-NTAT-C( )-ATERLAHFLQRSSF-Gly(Me)-A-Ile(Me)-LSSTEVGSDT-Hyp-NH2] ({C20 diacid-γGlu}-RCNTATCATERLAHFLQRSSF[Sar]A[NMeI]LSSTEVGSDT[Hyp]-NH2; disulfide 2-7) |
| A (A = >90%) | A (A = >90%) | B (B = 70-90%) | B (B = 70-90%) | 0.12 | FND | FD | FD | 0.23 | CC[C@H](C)[C@@H](C(=O)N[C@@H](CC(C)C)C(=O)N[C@@H](CO)C(=O)N[C@@H](CO)C(=O)N[C@H](C(=O)N[C@@H](CCC(=O)O)C(=O)N[C@H](C(=O)NCC(=O)N[C@@H](CO)C(=O)NCC(=O)N[C@H](C(=O)N1C[C@H](O)C[C@H]1C(N)=O)[C@@H](C)O)C(C)C)[C@@H](C)O)N(C)C(=O)[C@H](C)NC(=O)CN(C)C(=O)[C@H](Cc1ccccc1)NC(=O)[C@H](CCCNC(=N)N)NC(=O)[C@H](CCC(N)=O)NC(=O)[C@H](CC(C)C)NC(=O)[C@H](Cc1ccccc1)NC(=O)[C@H](Cc1c[nH]cn1)NC(=O)[C@H](C)NC(=O)[C@H](CC(C)C)NC(=O)[C@H](CCCNC(=N)N)NC(=O)[C@H](CCC(N)=O)NC(=O)[C@@H](NC(=O)[C@H](C)NC(=O)[C@@H]1CSSC[C@H](NC(=O)[C@H](CCCNC(=N)N)NC(=O)CC[C@H](NC(=O)CCCCCCCCCCCCCCCCCCC(=O)O)C(=O)O)C(=O)N[C@@H](CC(N)=O)C(=O)N[C@@H]([C@@H](C)O)C(=O)N[C@@H](C)C(=O)N[C@@H]([C@@H](C)O)C(=O)N1)[C@@H](C)O [Compound 79, [19CD]-isoGlu-R-C( )-NTAT-C( )-ATQRLAHFLQRF-Gly(Me)-A-Ile(Me)-LSSTEVGSGT-Hyp-NH2] ({C20 diacid-γGlu}-RCNTATCATQRLAHFLQRF[Sar]A[NMeI]LSSTEVGSGT[Hyp]-NH2; disulfide 2-7) |
